According to PMC5118987 (Antimicrobial Agents and Chemotherapy, 2016):
Like-named read-outs stand apart in the source and are kept apart here.

Legend:
[1] = tested on: HIV-1 clinical isolates; test: Antiviral assay against HIV-1 clinical isolates in fresh human PBMCs (RT endpoint)
[2] = tested on: HCV 1b Replicon; test: Anti-HCV activity, HCV 1b replicon; details: Hepatitis C virus, Huh-7
[3] = tested on: Influenza B/LEE/40; test: microbe, parasite or virus in culture; type: cell-based; details: NHBE
[4] = tested on: HIV-1 IIIb
Experimental: Each compound series was prepared several times independently in quadruplicate to capture the variations in Hill slope associated with preparation of compound serial dilutions. The assay was performed in a 384-well format. MT-4 cells were infected in bulk at the same MOI as that described above, and the plates were developed with CellTiter-Glo reagent 5 days postinfection.

[5] = tested on: RSV strain A2; test: microbe, parasite or virus in culture; type: cell-based, respiratory syncytial virus; details: human respiratory syncytial virus, HEp-2
[6] = tested on: HBV Production; test: microbe, parasite or virus in culture; details: Hepatitis B virus
[7] = tested on: inhibitor-selected HIV-1 IIIb passages; test: Phenotypic profile of selected HIV-1 passages; type: cell-based; details: Human immunodeficiency virus 1, IIIB
[8] = tested on: INSTI-resistant HIV-1 mutants (HXB2); test: microbe, parasite or virus in culture; type: cell-based
[9] = tested on: HIV-1 IIIb; test: Antiviral assay in MT-2 cells; type: cell-based
Experimental: (§1) For the antiviral assay utilizing MT-2 and MT-4 cells, 50 μl of a 2× test concentration of 5-fold serially diluted compound in culture medium with 10% FBS was added to each well of a 96-well plate (9 concentrations) in triplicate. MT-2 and MT-4 cells were infected with HIV-1 IIIb at a multiplicity of infection (MOI) of 0.01 for 3 h. Fifty microliters of infected cell suspension in culture medium with 10% FBS (∼1.5 × 10^4 cells) then was added to each well containing 50 μl of diluted compound. The plates were then incubated at 37°C for 5 days. After 5 days of incubation, 100 μl of CellTiter-Glo reagent (Promega Biosciences, Inc., Madison, WI) was added to each well containing MT-2 or MT-4 cells. Cell lysis was carried out by incubation at room temperature for 10 min and chemiluminescence was read. For compound cytotoxicity assessment, the protocol was identical except that uninfected cells were used and compounds were serially diluted 3-fold.

[10] = in vitro; details: human, 6 days
Source text: Freshly isolated human peripheral blood mononuclear cells (PBMCs) were obtained from healthy volunteers (supplied by AllCells, Inc., Alameda, CA). Blood donors were negative for HIV-1, hepatitis B, and hepatitis C viral infections. CD4^+ T lymphocytes were isolated by negative selection using a magnetically labeled antibody cocktail ([sequence] Technologies Inc., Vancouver, Canada) and cultured in RPMI cell culture media (Life Technologies, Grand Island, NY) supplemented with 10% FBS. CD4^+ T cells were activated for 48 h at 37°C by addition of 1 μg/ml phytohemagglutinin (PHA; Sigma, St. Louis, MO) and 5 ng/ml interleukin-2 (IL-2; Roche Diagnostics, Indianapolis, IN). […] Human PBMCs were used for cytotoxicity assays after culturing for 48 h in either complete RPMI medium alone (resting conditions) or RPMI containing 1 μg/ml PHA and 5 ng/ml IL-2 (activated conditions).

[11] = tested on: HIV-1 BaL; test: Antiviral assay in primary CD4+ T lymphocytes (p24 ELISA); details: Human immunodeficiency virus 1, BAL
Source text: (§2) Freshly isolated human peripheral blood mononuclear cells (PBMCs) were obtained from healthy volunteers (supplied by AllCells, Inc., Alameda, CA). Blood donors were negative for HIV-1, hepatitis B, and hepatitis C viral infections. CD4^+ T lymphocytes were isolated by negative selection using a magnetically labeled antibody cocktail ([sequence] Technologies Inc., Vancouver, Canada) and cultured in RPMI cell culture media (Life Technologies, Grand Island, NY) supplemented with 10% FBS. CD4^+ T cells were activated for 48 h at 37°C by addition of 1 μg/ml phytohemagglutinin (PHA; Sigma, St. Louis, MO) and 5 ng/ml interleukin-2 (IL-2; Roche Diagnostics, Indianapolis, IN).
(§3) A 3-fold serial dilution of test compounds in RPMI medium was added to triplicate wells and incubated at 37°C for 5 days. Human monocytes were seeded on 96-well plates at a density of 3 × 10^5 cells per well, differentiated into adherent macrophages, and then infected with HIV-1 BaL virus in 50 μl RPMI for 3 h at 37°C. […] The supernatants derived from the CD4^+ T-cell and macrophage cultures were harvested 6 and 12 days postinfection, respectively, and the amount of HIV present was quantified by p24 enzyme-linked immunosorbent assay (ELISA) (PerkinElmer, Waltham, MA).

[12] = tested on: NRTI-, NNRTI- and PI-Resistant HIV-1 Mutants; test: Antiviral activity against NRTI-, NNRTI- and PI-resistant HIV-1 mutants; type: cell-based; details: Human immunodeficiency virus 1; WT, Table S7
[13] = tested on: HRV (mixture of HRV1A, HRV14, HRV16); test: microbe, parasite or virus in culture; type: cell-based; details: Human rhinovirus sp., H1-HeLa
[14] = Cytotoxicity assay in MT-2 cells; type: cell-based; details: human, uninfected MT-2 cells
Experimental: as §1

[15] = tested on: HIV-1 BaL; test: Antiviral assay in monocyte-derived macrophages (p24 ELISA); details: Human immunodeficiency virus 1, BAL, Macrophage
Source text: as §2, §3

[16] = tested on: HIV-1 IIIb; test: Antiviral assay in MT-4 cells; type: cell-based; details: Human immunodeficiency virus 1, MT4, 120 h, 5 days
Experimental: as §1

[17] = tested on: HCV 2a Replicon; test: Anti-HCV activity, HCV 2a replicon; details: Hepatitis C virus, Huh-7
[18] = in vitro; details: human, CC50 in Primary Human Hepatocytes
[19] = tested on: HIV-1 BaL; details: primary CD4+ T-cells, 35 days, drug at tissue culture equivalent clinical Cmin (FTC 160 × EC50)
[20] = tested on: HIV-2 CDC 310319; test: Antiviral assay against HIV-2 isolate in fresh human PBMCs (RT endpoint); details: Human immunodeficiency virus 2, PBMC

In the case of `O=C(NCc1c(F)cc(F)cc1F)c1cn2c(c(O)c1=O)C(=O)N1[C@H]3CC[C@H](C3)O[C@@H]1C2` [BIC, Bictegravir], the EC50 ([1]; Human immunodeficiency virus 1, BAL, PBMC, HIV-1 subtype B isolate BaL, human PBMCs) is reported as 0.35 ± 0.12 nM, the EC50 ([1]; Human immunodeficiency virus 1, PBMC, HIV-1 subtype A isolate 92RW016, human PBMCs) is reported as 0.71 ± 0.26 nM and the EC50 ([1]; Human immunodeficiency virus 1, PBMC, HIV-1 subtype A isolate 92UG037, human PBMCs) is reported as 1.5 ± 0.6 nM. The EC50 ([1]; Human immunodeficiency virus 1, PBMC, HIV-1 subtype B isolate 89BZ_167, human PBMCs) was 1 ± 0.5 nM, the EC50 ([1]; Human immunodeficiency virus 1, PBMC, HIV-1 subtype B isolate 91US001, human PBMCs) was 0.89 ± 0.17 nM and the EC50 ([1]; Human immunodeficiency virus 1, PBMC, HIV-1 subtype B isolate 91US004, human PBMCs) was 1.2 ± 0.4 nM. For the same molecule, the EC50 ([1]; Human immunodeficiency virus 1, PBMC, HIV-1 subtype C isolate 93IN905, human PBMCs) was 0.15 ± 0.01 nM, the EC50 ([1]; Human immunodeficiency virus 1, PBMC, HIV-1 subtype C isolate 98US_MSC5016, human PBMCs) was 1.2 ± 0.2 nM and the EC50 ([1]; Human immunodeficiency virus 1, PBMC, HIV-1 subtype D isolate 98UG_57128, human PBMCs) was 0.33 ± 0.01 nM. For the same molecule, the EC50 ([1]; Human immunodeficiency virus 1, PBMC, HIV-1 subtype E isolate 96TH_M02138, human PBMCs) was 0.51 ± 0.17 nM, the EC50 ([1]; Human immunodeficiency virus 1, PBMC, HIV-1 subtype E isolate 96TH_NI1046, human PBMCs) was 0.25 ± 0.06 nM and the EC50 ([1]; Human immunodeficiency virus 1, PBMC, HIV-1 subtype F isolate 93BR020, human PBMCs) was 1.2 ± 0.5 nM. It also gave an EC50 ([1]; Human immunodeficiency virus 1, PBMC, read-out: mean EC50 against clinical isolates, 14 HIV-1 isolates and one HIV-2 isolate, human PBMCs) of 0.81 nM, an EC50 ([1]; Human immunodeficiency virus 1, PBMC, read-out: range of EC50s against clinical isolates, 14 HIV-1 isolates and one HIV-2 isolate, human PBMCs) of 0.04 to 1.7 nM and an EC50 [2] of over 44000 nM. The EC50 [3] was 37200 nM, the “PAEC95 (protein binding-adjusted EC95)” value ([4]; EC95 in MT-4 with human serum shift) was 361 nM and the EC95 ([4]; MT-4 cells, calculated using Hill slope) was 8.3 nM. The EC50 [5] was over 50000 nM, the EC50 [6] was over 50000 nM and the EC50 ([7]; 480 h, selected virus EVG P2 (day 20, 7.2 nM)) was 5.8 nM. For the same molecule, the EC50 ([7]; HIV-1-IIIb (unselected)) was 2.2 nM, the EC50 ([7]; selected virus BIC P3 (day 47, 6 nM)) was 3.8 nM and the EC50 ([7]; selected virus BIC P5 (day 71, 12 nM)) was 5.8 nM. The EC50 ([7]; selected virus BIC P6 (day 86, 24 nM)) was 7.8 nM, the EC50 ([7]; selected virus BIC P8 (day 156, 96 nM)) was 11.2 nM and the EC50 ([7]; selected virus BIC P9 (day 181, 192 nM)) was 17.5 nM. The EC50 ([7]; selected virus BIC P10 (day 234, 384 nM)) was 13.5 nM, the EC50 ([7]; selected virus DTG P3Lo (day 59, 6.4 nM)) was 2.9 nM and the EC50 ([7]; selected virus DTG P4 (day 87, 9.6 nM)) was 7.8 nM. For the same molecule, the EC50 ([7]; selected virus DTG P5 (day 97, 14.4 nM)) was 10.6 nM, the EC50 ([7]; selected virus DTG P7 (day 139, 32.4 nM)) was 21.8 nM and the EC50 ([7]; selected virus DTG P9 (day 174, 72.9 nM)) was 23.8 nM. For the same molecule, the EC50 ([7]; selected virus DTG P10 (day 202, 109.4 nM)) was 30 nM, the EC50 ([7]; selected virus EVG P4 (day 41, 28.8 nM)) was 6.5 nM and the EC50 ([7]; selected virus EVG P6 (day 56, 115 nM)) was 6.8 nM. The EC50 ([7]; selected virus EVG P7 (day 67, 230 nM)) was 8.9 nM, the EC50 ([7]; selected virus EVG P9 (day 94, 922 nM)) was 6.8 nM and the EC50 ([7]; selected virus EVG P10 (day 119, 1843 nM)) was 2.9 nM. The EC50 ([8]; Human immunodeficiency virus 1, HXB2, IN mutant E92Q) was 2 ± 0.8 nM, the EC50 ([8]; Human immunodeficiency virus 1, HXB2, IN mutant E92Q/N155H) was 2 ± 0.2 nM and the EC50 ([8]; Human immunodeficiency virus 1, HXB2, IN mutant E138K/Q148K) was 13.7 ± 1.2 nM. It also gave an EC50 ([8]; Human immunodeficiency virus 1, HXB2, IN mutant G140S/Q148R) of 3.1 ± 0.8 nM, an EC50 ([8]; Human immunodeficiency virus 1, HXB2, IN mutant M50I (BIC/DTG selection)) of 1.9 ± 0.3 nM and an EC50 ([8]; Human immunodeficiency virus 1, HXB2, IN mutant M50I/R263K (BIC selection)) of 4.2 ± 0.9 nM. It also gave an EC50 ([8]; Human immunodeficiency virus 1, HXB2, IN mutant M50I/S119R/R263K (DTG selection)) of 6.4 ± 1.6 nM, an EC50 ([8]; Human immunodeficiency virus 1, HXB2, IN mutant N155H) of 1.6 ± 0.4 nM and an EC50 ([8]; Human immunodeficiency virus 1, HXB2, IN mutant N155H/Q148R) of 7.1 ± 4.3 nM. For the same molecule, the EC50 ([8]; Human immunodeficiency virus 1, HXB2, IN mutant Q148R) was 1 ± 0.3 nM, the EC50 ([8]; Human immunodeficiency virus 1, HXB2, IN mutant R263K (BIC/DTG selection), Table 7) was 3.2 ± 0.7 nM and the EC50 ([8]; Human immunodeficiency virus 1, HXB2, IN mutant R263K, Table 6) was 2.9 ± 0.7 nM. For the same molecule, the EC50 ([8]; Human immunodeficiency virus 1, HXB2, IN mutant S119R (DTG selection)) was 2.7 ± 0.7 nM, the EC50 ([8]; Human immunodeficiency virus 1, HXB2, IN mutant S119R/R263K (DTG selection)) was 4.2 ± 1.3 nM and the EC50 ([8]; Human immunodeficiency virus 1, HXB2, IN mutant S153Y (DTG selection)) was 3.9 ± 0.7 nM. For the same molecule, the EC50 ([8]; Human immunodeficiency virus 1, HXB2, IN mutant S153Y/R263K (DTG selection)) was 8.3 ± 1.4 nM, the EC50 ([8]; Human immunodeficiency virus 1, HXB2, IN mutant Y143R) was 1.8 ± 0.5 nM and the EC50 ([8]; Human immunodeficiency virus 1, HXB2, WT (HXB2), Table 6, read-out: EC50) was 1.6 ± 0.4 nM. The EC50 ([8]; Human immunodeficiency virus 1, HXB2, WT (HXB2), Table 7, read-out: EC50) was 1.5 ± 0.3 nM, the “cross-resistance to single-mutant HIV-1 variants” value ([8]; {}) was 1-2 fold and the EC50 ([9]; Human immunodeficiency virus 1, IIIB, MT2, T-cell lines and primary human T lymphocytes, read-out: 50% effective concentrations) was 1.5 to 2.4 nM. For the same molecule, the EC50 ([9]; Human immunodeficiency virus 1, MT2, 120 h, MT-2 cells, HIV-1 IIIb, 5 days, read-out: EC50) was 1.5 ± 0.2 nM, the CC50 ([10]; CC50, Activated PBMCs (IL-2/PHA 2 days)) was 5700 nM and the CC50 ([10]; CC50, Resting PBMCs) was 8400 nM. It also gave an EC50 [11] of 1.5 ± 0.3 nM, an EC50 [12] of 1.7 ± 0.5 nM and an EC50 [13] of over 50000 nM. The CC50 at 5 days [14] was 10300 nM, the EC50 [15] was 6.6 ± 4.1 nM and the EC50 [16] was 2.4 ± 0.4 nM. The EC50 [17] was over 44000 nM, the CC50 ([18]; Donor 1) was over 100000 nM and the CC50 ([18]; Donor 2) was over 100000 nM. For the same molecule, the “Frequency of Viral Breakthrough with RAMs” value [19] was 0%, the “p24+ Wells” value [19] was 0/24 and the EC50 [20] was 1.7 ± 1 nM.
